Laboratory results taken from patent publication EP0490598A1 (priority 1990, dated 1992).
≈ marks a conversion by molar mass, not a printed value. Where two headings read alike, the source gives them in different places.

Tests used:
Balb/c lymphocytes = experiment: Lymphocyte Viability (LCV) assay, MTT; type: cell-based, mice; settings: Mus musculus, 96 hours, 50% viability
Procedure: (§1) Murine lymphocytes were derived by splenectomy, under sterile conditions, from Balb/c and C57B1/6 mice sacrificed by cervical dislocation. Spleens were homogenized in 15 mM RPMI medium […], 87%; fetal calf serum, 10%; L-glutamine (200 mM), 2% and supplemented with 1% antibiotic-antimycotic solution (GIBCO) and 25 µg/ml gentamycin. Red blood cells were lysed by brief exposure to sterile, distilled water and subsequently reconstituted to normal tonicity with PBS (10x). The final cell preparation was enumerated, and the viability evaluated, by means of a hemacytometer using the trypan blue exclusion method.
The LCV is an in vitro cytotoxicity assay for murine lymphocytes designed by the investigator. […] The percent viable cells is determined by the MTT-thiazolyl blue method after a similar incubation in the MLR of lymphocytes with the test sample. […] If there is no significant reduction in cell viability, as determined by this detection method, then damaged cells are probably not present for low data values generated in the MLR. Colorimetric data from the LeV is calculated as a percentage of viability, relative to control, using the following formula: (Experimental value - (Nonspecific Color))/(Positive Control - (Media))x 100 [formula] […]

murine lymphocytes = experiment: Mixed Lymphocyte Reaction (MLR) assay; type: cell-based, mice; settings: Mus musculus, two-way MLR, Balb/c and C57B1/6 lymphocytes, 96 hours, 3H-thymidine
Procedure: as §1
The MLR is an in vitro test of cellular immunity in which murine lymphocytes from genetically dissimilar animals are cocultured to mutually induce cell proliferation (i.e. two-way MLR method). […] Data from the MLR is generated as dpm of radioactivity which is then expressed as a percentage of cellular activity, relative to control, using the following reduced formula: (Experimental value - (Balb/c - C57B1/6 - Media))/(Positive Control - (Balb/c - C57B1/6 - Media))x 100 [formula] […]
Reconstituted compound at each of several concentrations was added in duplicate (10µl) into wells of a 96-well microtiter plate and evaporated to dryness at room temperature. […] The radioactivity from DNA-bound 3H thymidine was counted using a dry INOTECH counter. Results were calculated as described above.

P-388 cells = experiment: Antitumoral assay, P-388 cell growth (cell counting); type: cell-based, mouse; settings: for IC50: Mus musculus
Procedure: (§2) Pateamine was diluted in MeOH/CH₂Cl₂ 1:1 at 100 ng/ml and it has been tested at different concentrations. The solvent was allowed to evaporate before the cells were seeded.
Four general anitumoural assays, employing the current screening protocols have been carried out using the following cells: P-388 (lymphoid neoplasm from DBA/2 mouse) A-549 (human lung carcinoma) HT-29 (human colon carcinoma) KB (human oral epidermoid carcinoma)
P-388 cells were seeded into 16 mm wells at 1 x 10⁴ per well in […] aliquots of MEM 10FCS containing the indicated concentration or drug. All determinations were carried out in duplicate. After three days of incubation cells were counted and the IC₅₀ was determined.

[1] = test system: VSV (vesicular stomatitis virus); type: cell-based; settings: VSV in BHK cells
BHK cells = experiment: Cytotoxicity assay, BHK cell growth (cell counting); type: cell-based, hamster; settings: Mesocricetus auratus, 72 h, three days of incubation, read-out: IC50 ng/ml approx.
Procedure: as §2
It has been done two kinds of cytotoxicity assays, one of them employing the same screening protocols and another one with the MTT method. In both cases the cells were: CV-1 (monkey kidney fribroblast) BHK (hamster kidney fibroblast)
BHK cells were seeded into 16 mm wells at 2 x 10⁴ per well. The day after the inoculum was replaced by 1 ml aliquots of MEM 10FCS containing the indicated concentration of drug. All determinations were carried out in duplicate. After three days of incubation cells were counted and the IC₅₀ was determined.

SMILES: CC(/C=C/C(C)=C/C1Cc2nc(cs2)C(C)CC(N)CC(=O)OC(C)C/C(C)=C/C=C\C(=O)O1)=C\CN(C)C (centres unmarked) [PATEAMINE, pateamine]
- IC50 (Balb/c lymphocytes): 4100 ng/mL (≈ 7380 nM)
- IC50 (murine lymphocytes): < 1.5 ng/mL
- % Inhibition P-388 cell growth (P-388 cells; 0.1ng, three days of incubation): 11%
- % Inhibition P-388 cell growth (P-388 cells; 1ng, three days of incubation): 100%
- % Inhibition P-388 cell growth (P-388 cells; 5ng, three days of incubation): 100%
- % Inhibition P-388 cell growth (P-388 cells; 10ng, three days of incubation): 100%
- IC50 (P-388 cells; P388, 72 h, P-388, three days of incubation, read-out: IC50 ng/ml approx.): ~0.3 ng/mL (≈ 0.54 nM)
- IC50 (P-388 cells; P388, read-out: IC50): 0.15 ng/mL (≈ 0.27 nM)
- IC50 ng/disk [1]: >10 ng/disk
- % Inhibition BHK/VSV (sign for plaque reduction) ([1]; 10ng): 14 - (The sign (-), indicates no inhibition of virus replication.)
- IC50 (BHK cells): ~3 ng/mL (≈ 5.4 nM)
